According to patent publication US12577232B2, “N-heterocycle substituted tryptamine derivatives and methods of using” (ENVERIC B[…] INC., priority 2024, dated 2026):
Like-named read-outs stand apart in the source and are kept apart here.

Experiments:
[1] = molecular target: T1, human serotonin transporter (SERT) (Homo sapiens, UniProt P31645); test: biochemical; type: binding
T1 construct: purchased PerkinElmer RBHSTM400UA
Procedure: A commonly applied SERT binding assay involves competition binding assays employing radiolabelled ligands. […] Radioactive binding assays were carried out using the Scintillation Proximity Assay (SPA). For saturation binding assay, mixtures of 9 μg of membrane containing human SERT was pre-coupled to 1 mg of SPA beads at room temperature in a tube rotator for 1 hour in binding buffer (50 mM Tris-HCl pH7.4, 120 mM NaCl, 5 mM KCl, 1 mM ascorbic acid, 10 μM pargyline HCl). […] After incubation, the samples are read on a MicroBeta 2 Microplate Counter. Non-specific binding was carried out in the presence of 200 μM of clomipramine hydrochloride (C7291-1G, Sigma). Equilibrium binding constant for imipramine (KD) was determined from saturation binding curve using one-site saturation binding analysis from GraphPad PRISM software (Version 9.2.0). All test compounds were dissolved to 100 mM in DMSO and dilutions were carried out in assay buffer. […] Ki values were calculated from the competition displacement data using the competitive binding analysis from GraphPad PRISM software. […] Vehicle (DMSO) without drug was used as a negative control.

[2] = test system: human model (NT2) neurons; test: Neuroplastogenicity (neurite outgrowth) assay in NT2 neurons; type: cell-based; set-up: key: a positive (+) designation indicating strong evidence of enhanced neurite outgrowth in drug-treated NT2 cells compared to vehicle-treated cells; a negative (−) designation indicating weak or no evidence of enhanced neurite outgrowth in drug-treated NT2 cells compared to vehicle-treated cells; settings: 1 or 10 μM, 48 h, visual inspection vs vehicle (0.1% DMSO)
Description: Classic psychedelics such as psilocybin and DMT show potential to treat anxiety and depression, and it has been theorized that such long-term improvements arise because these drugs rapidly and lastingly stimulate neuroplasticity (Calder and Hasler, 2023, Neuropsychopharmacol. 48:104-112). Thus, it was of interest to determine the potential of new compounds as neuroplastogens. Herein, we assess the capacity of various compounds to enhance neurite outgrowth in human model (NT2) neurons.
Human NT2/D1 precursor cells were purchased from the American Type Culture Collection (ATCC, Manassas, VA, USA). Neuronal differentiation was carried out as previously described (Roloff et al., 2015, PloS ONE 10:e0118536) with minor modifications. Firstly, NT2/D1 cells were seeded in T-25 suspension culture flasks (REF #690190, Greiner bio-one, Germany). Each flask contains a minimum of 5×10^6 cells in 10 ml of DMEM/F12 supplemented with 10% fetal bovine serum (FBS), 1% penicillin and streptomycin and 10 μM retinoic acid (RA) medium to start neuronal differentiation. The cells were cultured for 3 days in free floating medium. At the end of the incubation cells were trypsinized and collected by centrifugation, mechanically dispersed, and counted. Counted cells were seeded along Poly D-Lysine (PDL) coated cover slips (12 mm; diameter round, Fisher Scientific; GG-12-PDL) containing a minimum of 0.1×10^5 cells in culture medium without RA. The next day culture medium was replaced with RA medium containing 2% of FBS. These cells cultured for 5 days and two days later, RA medium was changed.
After cells had successfully attached and established along coverslips, the RA medium was replaced with new medium containing 2% FBS and one of the following: (1) test compound (1 or 10 μM), (2) RhoK (ROCK) inhibitor Y-27632 (1 μM) as a positive control (Dihydrochloride; Sigma-Aldrich) (Roloff et al., 2015, PloS ONE 10:e0118536); (3) DMT (1 or 10 μM) as a positive control (Calder and Hasler, 2023, Neuropsychopharmacol. 48:104-112), or (4) vehicle (0.1% DMSO) as a negative control. These cells were incubated for 48 hours under standard conditions (370C, 5% CO2). The cells cultured along coverslips were collected after 48 hours of treatment. The coverslips washed with calcium chloride and magnesium chloride-free phosphate buffered saline (PBS) pH 7.4 (Gibco, #70011-044) and fixed in paraformaldehyde (PFA) 4% in PBS (#J61899, thermoscientific) for 15 min at room temperature (RT) and washed three times with 0.01% of Triton-X100 in PBS (PBST) to remove remaining PFA and to permeabilize the cells. Non-specific binding sites were blocked with 5% of Bovine Serum Albumin (BSA) solution (#9048-46-8, Millipore) in PBST for 60 minutes at RT. Rabbit monoclonal antibody β-III-tubulin (1:5,000, ab52623, Abcam) was applied overnight (O/N) at 4° C. Next day cells are washed three times in PBST, neurons were incubated with secondary antibody Donkey anti-rabbit IgG(H+L) Alexa Fluor™ Plus488 (1:5000 #A32790, Invitrogen) for 1 hour at RT. These coverslips were mounted on Gluoromount-G™, with 4′6-diamidino-2′henylindoldihydrochloride (DAPI) (#E141818, Invitrogen). The immunofluorescence images were analyzed using an Olympus VS110 slide scanner microscope.
B-III-Tubulin immunofluorescence was quantified using ImageJ. Briefly, Corrected Total Cell Fluorescence (CTCF) was acquired for at least ˜8-10 representative cells, where CTCF=Integrated Density−[Area of selected cell*Mean Fluorescence of background]. The CTCF values, referred to herein as ‘signal intensities’, were used to calculate overall means±SD for each treatment. One-Way ANOVA was used to compare treatments. Further, the mean of each treatment was compared with the mean of the control treatment (RA-differentiated cells treated with vehicle, 0.1% DMSO) using Dunnett's multiple comparison procedure. […]

5-HT2A receptor = molecular target: T2, 5-HT2A receptor (Homo sapiens, UniProt P28223); test: 5-HT2A receptor radioligand competition assay (SPA, [3H]ketanserin); type: binding; settings: 1 nM [3H]ketanserin, membranes containing 5-HT2A
T2 construct: purchased PerkinElmer ES-313-M400UA
Procedure: Competition assays were performed as for 5-HT1A assays with the following differences. […] Determination of non-specific binding was carried out in the presence of […] of spiperone (S7395-250MG, Sigma-Aldrich). Equilibrium binding constant for ketanserin (Kd) was determined from saturation binding curves using the ‘one-site saturation binding analysis’ method in GraphPad PRISM software (Version 9.2.0).

5-HT1A receptor = molecular target: T3, 5-HT1A receptor (Homo sapiens, UniProt P08908); test: 5-HT1A receptor radioligand competition assay (SPA, [3H]8-hydroxy-DPAT); type: binding; settings: 0.5 nM hot 8-hydroxy-DPAT; membranes containing 5-HT1A
T3 construct: purchased Perkin Elmer 6110501400UA
T3 sequence (P08908 1-422): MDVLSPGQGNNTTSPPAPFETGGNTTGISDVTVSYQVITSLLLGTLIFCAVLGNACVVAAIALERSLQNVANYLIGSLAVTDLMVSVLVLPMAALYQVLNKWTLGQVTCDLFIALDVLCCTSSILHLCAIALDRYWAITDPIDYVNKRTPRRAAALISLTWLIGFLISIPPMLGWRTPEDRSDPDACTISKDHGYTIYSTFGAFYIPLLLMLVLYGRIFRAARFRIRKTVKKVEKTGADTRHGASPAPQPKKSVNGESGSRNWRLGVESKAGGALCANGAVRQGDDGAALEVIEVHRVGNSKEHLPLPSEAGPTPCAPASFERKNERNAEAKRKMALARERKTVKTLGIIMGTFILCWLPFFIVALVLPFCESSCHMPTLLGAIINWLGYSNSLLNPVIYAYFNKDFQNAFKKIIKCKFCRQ
Procedure: 5-HT1A receptor. […] After incubation, the samples were read on a MicroBeta 2 Microplate Counter (perkinelmer.com). Non-specific binding was carried out in the presence of 100 μM of metergoline (M3668-500MG, Sigma-Aldrich). Equilibrium binding constant for 8-hydroxy-DPAT (KD) was determined from a saturation binding curve using one-site saturation binding analysis from GraphPad PRISM software (Version 9.2.0). Test compound was dissolved to 100 mM in dimethylsulfoxide (DMSO), and dilutions were carried out in assay buffer. […] Ki values were calculated from the competition displacement data using the competitive binding analysis from GraphPad PRISM software. […] Conversely, blank preparations lacking any drug (simply termed ‘DMSO’ samples) were used as negative controls, in addition to those containing tryptophan which is not known to bind the 5-HT1A receptor.

T1 sequence (P31645 whole entry): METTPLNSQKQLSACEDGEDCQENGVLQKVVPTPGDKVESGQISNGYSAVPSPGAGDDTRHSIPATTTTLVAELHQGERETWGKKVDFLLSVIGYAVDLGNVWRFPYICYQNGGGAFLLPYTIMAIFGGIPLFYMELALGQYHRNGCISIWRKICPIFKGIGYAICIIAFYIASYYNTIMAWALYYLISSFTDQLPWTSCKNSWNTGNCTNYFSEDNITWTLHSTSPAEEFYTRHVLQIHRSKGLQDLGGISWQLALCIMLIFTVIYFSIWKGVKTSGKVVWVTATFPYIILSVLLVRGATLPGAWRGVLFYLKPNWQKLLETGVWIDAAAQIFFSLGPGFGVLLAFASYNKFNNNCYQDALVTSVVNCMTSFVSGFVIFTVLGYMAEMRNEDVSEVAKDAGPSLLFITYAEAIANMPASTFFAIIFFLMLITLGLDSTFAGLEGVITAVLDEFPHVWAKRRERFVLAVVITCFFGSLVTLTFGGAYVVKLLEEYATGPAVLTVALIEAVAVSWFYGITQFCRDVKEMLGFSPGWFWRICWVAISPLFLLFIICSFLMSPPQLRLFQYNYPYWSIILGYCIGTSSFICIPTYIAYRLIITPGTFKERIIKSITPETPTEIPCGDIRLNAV
T2 sequence (P28223 whole entry): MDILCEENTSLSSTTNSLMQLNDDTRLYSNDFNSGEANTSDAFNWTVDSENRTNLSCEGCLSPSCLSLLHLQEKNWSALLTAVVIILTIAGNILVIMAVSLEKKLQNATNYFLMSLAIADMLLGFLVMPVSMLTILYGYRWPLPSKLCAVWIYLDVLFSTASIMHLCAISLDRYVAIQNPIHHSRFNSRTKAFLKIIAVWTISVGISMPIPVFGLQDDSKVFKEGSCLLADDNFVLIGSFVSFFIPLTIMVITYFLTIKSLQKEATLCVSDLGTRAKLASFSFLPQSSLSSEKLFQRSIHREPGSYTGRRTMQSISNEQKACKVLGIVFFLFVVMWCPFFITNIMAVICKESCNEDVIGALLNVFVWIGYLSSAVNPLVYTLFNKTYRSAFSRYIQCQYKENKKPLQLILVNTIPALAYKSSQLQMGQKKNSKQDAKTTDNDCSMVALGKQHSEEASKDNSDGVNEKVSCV

CN(C)CCc1c[nH]c2ccccc12 [DMT, dimethyltryptamine, reference compound]
Ki ([1]; 1 nM imipramine, membranes containing human SERT, read-out: SERT, Ki): 2.58 µM | Evidence of neurite outgrowth: Yes (+) or No (−) [2]: + | Ki (5-HT2A receptor; 5-HT2A, Ki): 1.03 µM

CNC(C)Cc1ccc2c(c1)OCO2 (stereo not drawn) [MDMA, 3,4-methylenedioxymethamphetamine, reference compound]
Ki [1]: 5.8 µM | Ki (5-HT1A receptor): 11 µM | Ki (5-HT2A receptor; read-out: 5-HT2A, Ki): 39.9 µM
